According to US8192962B2, “Processes for detecting toxic substances” (Daikin Industries, Ltd., priority 2001, dated 2012):

System: Stress protein genes
Experiment: DNA chip mRNA expression in yeast, stress protein genes (Table 6)
Type: cell-based, Saccharomyces cerevisiae S288C
Outline: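 S. cerevisiae S288C grown at 25° C. in YPD to log phase, then exposed 2 h to a toxicant at a growth-inhibiting, non-lethal concentration; untreated cells as control. Poly(A) mRNA reverse-transcribed with Cy3-dUTP or Cy5-dUTP, hybridized >12 h at 65° C. to whole-genome yeast DNA chip; value = fluorescence ratio treated/untreated.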

N#Cc1c(Cl)c(Cl)c(Cl)c(C#N)c1Cl [(9), 2,4,5,6-tetrachloro-1,3-benzenedicarbonitrile]
The level of expressed mRNA in the presence of chemical substance/The level of expressed mRNA in the absence of chemical substance (yeast gene YAL005C): 3.9 | The level of expressed mRNA in the presence of chemical substance/The level of expressed mRNA in the absence of chemical substance (yeast gene YAL015C): 4.0 | The level of expressed mRNA in the presence of chemical substance/The level of expressed mRNA in the absence of chemical substance (yeast gene YBL075C): 60.3 | The level of expressed mRNA in the presence of chemical substance/The level of expressed mRNA in the absence of chemical substance (yeast gene YBL093C): 0.7 | The level of expressed mRNA in the presence of chemical substance/The level of expressed mRNA in the absence of chemical substance (yeast gene YBR044C): 0.8 | The level of expressed mRNA in the presence of chemical substance/The level of expressed mRNA in the absence of chemical substance (yeast gene YBR054W): 0.4 | The level of expressed mRNA in the presence of chemical substance/The level of expressed mRNA in the absence of chemical substance (yeast gene YBR067C): 1.7 | The level of expressed mRNA in the presence of chemical substance/The level of expressed mRNA in the absence of chemical substance (yeast gene YBR072W): 29.4 | The level of expressed mRNA in the presence of chemical substance/The level of expressed mRNA in the absence of chemical substance (yeast gene YBR126C): 1.7 | The level of expressed mRNA in the presence of chemical substance/The level of expressed mRNA in the absence of chemical substance (yeast gene YBR169C): 7.0 | The level of expressed mRNA in the presence of chemical substance/The level of expressed mRNA in the absence of chemical substance (yeast gene YCL035C): 1.9 | The level of expressed mRNA in the presence of chemical substance/The level of expressed mRNA in the absence of chemical substance (yeast gene YCR021C): 2.2 | The level of expressed mRNA in the presence of chemical substance/The level of expressed mRNA in the absence of chemical substance (yeast gene YCR060W): 0.7 | The level of expressed mRNA in the presence of chemical substance/The level of expressed mRNA in the absence of chemical substance (yeast gene YCR083W): 1.8 | The level of expressed mRNA in the presence of chemical substance/The level of expressed mRNA in the absence of chemical substance (yeast gene YDL022W): 1.2 | The level of expressed mRNA in the presence of chemical substance/The level of expressed mRNA in the absence of chemical substance (yeast gene YDL025C): 3.6 | The level of expressed mRNA in the presence of chemical substance/The level of expressed mRNA in the absence of chemical substance (yeast gene YDR033W): 0.3 | The level of expressed mRNA in the presence of chemical substance/The level of expressed mRNA in the absence of chemical substance (yeast gene YDR077W): 0.7 | The level of expressed mRNA in the presence of chemical substance/The level of expressed mRNA in the absence of chemical substance (yeast gene YDR098C): 3.7 | The level of expressed mRNA in the presence of chemical substance/The level of expressed mRNA in the absence of chemical substance (yeast gene YDR155C): 1.3 | The level of expressed mRNA in the presence of chemical substance/The level of expressed mRNA in the absence of chemical substance (yeast gene YDR258C): 4.9 | The level of expressed mRNA in the presence of chemical substance/The level of expressed mRNA in the absence of chemical substance (yeast gene YDR293C): 1.2 | The level of expressed mRNA in the presence of chemical substance/The level of expressed mRNA in the absence of chemical substance (yeast gene YDR436W): 3.5 | The level of expressed mRNA in the presence of chemical substance/The level of expressed mRNA in the absence of chemical substance (yeast gene YDR513W): 4.6 | The level of expressed mRNA in the presence of chemical substance/The level of expressed mRNA in the absence of chemical substance (yeast gene YDR519W): 0.5 | The level of expressed mRNA in the presence of chemical substance/The level of expressed mRNA in the absence of chemical substance (yeast gene YEL030W): 2.3 | The level of expressed mRNA in the presence of chemical substance/The level of expressed mRNA in the absence of chemical substance (yeast gene YEL039C): 1.2 | The level of expressed mRNA in the presence of chemical substance/The level of expressed mRNA in the absence of chemical substance (yeast gene YER042W): 6.8 | The level of expressed mRNA in the presence of chemical substance/The level of expressed mRNA in the absence of chemical substance (yeast gene YER057C): 0.6 | The level of expressed mRNA in the presence of chemical substance/The level of expressed mRNA in the absence of chemical substance (yeast gene YER103W): 20.3 | The level of expressed mRNA in the presence of chemical substance/The level of expressed mRNA in the absence of chemical substance (yeast gene YER125W): 0.6 | The level of expressed mRNA in the presence of chemical substance/The level of expressed mRNA in the absence of chemical substance (yeast gene YFL014W): 13.1 | The level of expressed mRNA in the presence of chemical substance/The level of expressed mRNA in the absence of chemical substance (yeast gene YFL016C): 6.4 | The level of expressed mRNA in the presence of chemical substance/The level of expressed mRNA in the absence of chemical substance (yeast gene YFL020C): 1.3 | The level of expressed mRNA in the presence of chemical substance/The level of expressed mRNA in the absence of chemical substance (yeast gene YFR052W): 3.7 | The level of expressed mRNA in the presence of chemical substance/The level of expressed mRNA in the absence of chemical substance (yeast gene YGL073W): 1.9 | The level of expressed mRNA in the presence of chemical substance/The level of expressed mRNA in the absence of chemical substance (yeast gene YGL115W): 1.2 | The level of expressed mRNA in the presence of chemical substance/The level of expressed mRNA in the absence of chemical substance (yeast gene YGL181W): 2.7 | The level of expressed mRNA in the presence of chemical substance/The level of expressed mRNA in the absence of chemical substance (yeast gene YGR088W): 1.5 | The level of expressed mRNA in the presence of chemical substance/The level of expressed mRNA in the absence of chemical substance (yeast gene YHL028W): 0.2 | The level of expressed mRNA in the presence of chemical substance/The level of expressed mRNA in the absence of chemical substance (yeast gene YHL046C): 1.0 | The level of expressed mRNA in the presence of chemical substance/The level of expressed mRNA in the absence of chemical substance (yeast gene YHR030C): 0.6 | The level of expressed mRNA in the presence of chemical substance/The level of expressed mRNA in the absence of chemical substance (yeast gene YHR057C): 2.6 | The level of expressed mRNA in the presence of chemical substance/The level of expressed mRNA in the absence of chemical substance (yeast gene YHR104W): 4.8 | The level of expressed mRNA in the presence of chemical substance/The level of expressed mRNA in the absence of chemical substance (yeast gene YIL011W): 0.0
